We go through 30 compounds from ChEMBL document CHEMBL5608113, “Targeting of CAF-induced therapy resistance in CRC organoid-stroma co-cultures” (2024).

Holding throughout (assay type): functional, Homo sapiens
What all share (conditions): Homo sapiens, read-out: Cell Viability; for viability at 1 µM: Concentration 1 uM; for viability at 10 µM: Concentration 10 uM

Experiment [1] concerns Colon cancer organoid. Description: Targeting of F14 CAF-induced therapy resistance in O14 CRC organoid-stroma co-culture. Cell viability is reported without Gefitinib.
Experiment [2] concerns Colon cancer organoid. Put plainly: Targeting of F14 CAF-induced therapy resistance in O14 CRC organoid-stroma co-culture. Cell viability is reported with Gefitinib.
Experiment [3] deals with Colon cancer organoid. Description: Targeting of F14 CAF-induced therapy resistance in O23 CRC organoid-stroma co-culture. Cell viability is reported without Gefitinib.
In experiment [4] the test system is Colon cancer organoid. Put plainly: Targeting of F14 CAF-induced therapy resistance in O23 CRC organoid-stroma co-culture. Cell viability is reported with Gefitinib.
Experiment [5] deals with Colon cancer organoid. Put plainly: Targeting of F14 CAF-induced therapy resistance in O23 CRC organoid-stroma co-culture. Cell viability is reported with SN-38.

As to `C[C@@H]1CN(c2cc(-c3n[nH]c4ccc(OC5(C)CC5)cc34)ncn2)C[C@H](C)O1` [MLi-2], the viability at 1 µM in experiment [1] was found to be 113%; in experiment [2] it was 27.4%; in experiment [3], 102%; in experiment [4] it was 41%; in experiment [5], 46.4%.
Taken in the same sequence, the figures for `O=S(=O)(NC1CCC(c2cc(F)ccc2F)(S(=O)(=O)c2ccc(Cl)cc2)CC1)C(F)(F)F` (stereo not given) [MRK-560] were 73.7%, 32.8%, 130%, 60.6% and 64.4%.
For `CC(=O)c1c(NS(C)(=O)=O)c2cc(-c3ccc(Cl)cc3)c(-c3ccc(Cl)cc3Cl)nc2n(C)c1=O` [MRL-CB1-NC], the viability at 10 µM in experiment [1] came out at 148%; in experiment [2] it was 53.2%; in experiment [3] it was 92.4%; in experiment [4] it was 48.2%; in experiment [5], 60.4%.
In the same order, the values of `Cc1ccc(-c2cnc([C@@]3(O)CC[C@H](C(=O)O)C(C)(C)C3)s2)cc1Nc1cccc(C(F)(F)F)n1` [MRL-SYKi-NC] are 110%, 48.6%, 139%, 51.3% and 73.3%.
Turning to `Cc1cc(Nc2nccc(C)n2)cc(-c2cnc([C@@]3(O)CC[C@H](C(=O)O)C(C)(C)C3)s2)c1` [MRL-SYKi], the viability at 1 µM in experiment [1] is 137%; in experiment [2], 32.9%; in experiment [3], 127%; in experiment [4] it was 63.4%; in experiment [5], 81.4%.
`COc1cc(C(=O)O)ncc1C#Cc1ccccc1NS(=O)(=O)c1cccc2c(N(C)C)ccnc12` [MSC-0516]: the viability at 10 µM in experiment [1] is 117%; in experiment [2] it was 45.9%; in experiment [3], 131%; in experiment [4] it was 47.7%; in experiment [5], 79.4%.
In the same order, the values of `FC(F)(F)c1ccc2c(c1)nc(-c1cccnc1)n2C1CC1` [MSD-CYP11B2-Negative-control] are 65.1%, 32.7%, 150%, 69.7% and 92.9%.
Taken in the same sequence, the figures for `CC(C)(O)c1cncc(-c2nc3ccc(F)cc3n2C2CC2)c1` [MSD-CYP11B2] were 107%, 39%, 144%, 79.5% and 94.9%.
Taken in the same sequence, the figures for `N#CC1(c2ccccn2)CCN(Cc2cc(C(=O)N3CCCC3)c(=O)n3ccccc23)CC1` [MSD-M1PAM-NC] were 93.4%, 35.2%, 136%, 81.2% and 63.2%.
With `N#CC1(c2ccccn2)CCN(Cc2cc(C(=O)O)c(=O)n3ccccc23)CC1` [MSD-M1PAM], the viability at 10 µM in experiment [1] came to 84.9%; in experiment [2] it was 37%; in experiment [3], 118%; in experiment [4], 64.3%; in experiment [5] it was 71.9%.
Taken in the same sequence, the figures for `CC(=O)Nc1c(C(C)=O)c(=O)n(C)c2nc(-c3ccc(Cl)cc3Cl)c(-c3ccc(Cl)cc3)cc12` [NAPHTHYRIDINONE] were 119%, 48.1%, 109%, 58.3% and 81.5%.
Taken in the same sequence, the figures for `CO[C@@H](C)c1c(Nc2ccc([C@@H](N(C)C(=O)C3CCS(=O)(=O)CC3)C(F)(F)F)cc2)cnc2cc(Cl)nn12` [NVS-MALT1-C] were 84.5%, 34.3%, 119%, 70.3% and 82.8%.
For `CO[C@@H](C)c1c(Nc2ccc([C@H](N(C)C(=O)C3CCS(=O)(=O)CC3)C(F)(F)F)cc2)cnc2cc(Cl)nn12` [NVS-MALT1], the viability at 10 µM stood at 106% in experiment [1]; 36.8% in experiment [2]; 226% in experiment [3]; 60.9% in experiment [4]; 89.1% in experiment [5].
With `Nc1nc(NCc2ccccc2)nc(-c2ccccc2CO)n1` [Ogerin], the viability at 10 µM in experiment [1] came out at 123%; in experiment [2] it was 26.8%; in experiment [3], 222%; in experiment [4], 71.3%; in experiment [5], 106%.
As for `CN(c1ccnc(CNc2nc(Nc3ccc4c(c3)CC(=O)N4)ncc2C(F)(F)F)n1)S(C)(=O)=O` [PF-00911705], the viability at 1 µM in experiment [1] is 87%; in experiment [2] it was 48%; in experiment [3] it was 87.4%; in experiment [4] it was 34.6%; in experiment [5], 73.5%.
On to `CC(=O)NCC(=O)N1[C@@H]2CC[C@H]1c1ccc(Nc3ncc(C(F)(F)F)c(NC4CCC4)n3)cc12` [PF-03814735], for which the viability at 10 µM in experiment [1] is 14.8%; in experiment [2], 4.93%; in experiment [3] it was 33.7%; in experiment [4], 25.7%; in experiment [5], 48.4%.
Regarding `COc1ccc2cc(OCC3(C(=O)O)CN(C(=O)c4ccc(F)cc4)C3)ccc2c1` [PF-04418948], the viability at 1 µM in experiment [1] is 141%; in experiment [2], 43%; in experiment [3] it was 142%; in experiment [4] it was 40.3%; in experiment [5], 81.3%.
In the same order, the values of `O=C(c1ccc(F)cc1)N1CC(COc2ccc(Br)cc2)(C(=O)O)C1` [PF-04475866] are 159%, 36.4%, 118%, 66.8% and 85.2%.
Take `C[C@H](c1ccc(F)cc1)N(Cc1cccc(C(=O)O)c1)C(=O)c1cnc2ccccc2c1` [PF-05105679]: the viability at 10 µM in experiment [1] came to 126%; in experiment [2], 61.2%; in experiment [3], 104%; in experiment [4] it was 45.6%; in experiment [5], 98.3%.
Consider `C[C@H](c1ccc(F)cc1)N(Cc1ccc(Cl)c(C(=O)O)c1)C(=O)c1cnc2ccccc2c1` [PF-05257137], for which the viability at 10 µM came to 84% in experiment [1]; 51.5% in experiment [2]; 81.5% in experiment [3]; 41.2% in experiment [4]; 93.8% in experiment [5].
In the same order, the values of `Cc1noc(C)c1-c1cnc2c(-c3ccc(C(=O)O)cc3)cn([C@@H](C)c3ccccn3)c2c1` [PLX-51107] are 17.8%, 6.08%, 109%, 78.8% and 62.8%.
Taken in the same sequence, the figures for `Cn1cc(CNCC2CCN(c3ncc(C(=O)NO)cn3)CC2)c2ccccc21` [QUISINOSTAT] were 0.685%, 0.22%, 11.7%, 6.71% and 1.67%.
In the same order, the values of `O=C(CCCCCCNC(=O)c1cnc(N(c2ccccc2)c2ccccc2)nc1)NO` [RICOLINOSTAT] are 141%, 83%, 108%, 81.3% and 43.7%.
In the case of `C=CC(=O)Nc1ccc2[nH]c(=O)n(C3CCN(Cc4ccc(-c5ccc6c(c5)NC(=O)CO6)cc4)CC3)c2c1` [RL2578], the viability at 10 µM in experiment [1] was found to be 101%; in experiment [2] it was 33.2%; in experiment [3], 106%; in experiment [4] it was 55.4%; in experiment [5], 65.6%.
In the case of `Cn1cnc2c(F)c(Nc3ccc(Br)cc3Cl)c(C(=O)NOCCO)cc21` [SELUMETINIB], the viability at 10 µM in experiment [1] was 51.6%; in experiment [2], 22.1%; in experiment [3], 62.9%; in experiment [4] it was 27.6%; in experiment [5] it was 48.4%.
Take `CS(=O)(=O)N1CCCC(NC(=O)[C@H](CCC2CCCCC2)NC(=O)c2ccc(CNC(=O)c3cnc4ccccn34)cc2)C1` (stereo not given in full) [SR-302]: the viability at 1 µM in experiment [1] is 101%; in experiment [2] it was 37.1%; in experiment [3], 126%; in experiment [4] it was 69.8%; in experiment [5] it was 54.1%.
In the same order, the values of `Nc1c(C(=O)NCc2ccc(C(=O)NCCCC3CCCCC3)cc2)cnn1-c1ccccc1` [SR-318] are 85%, 41.3%, 166%, 58.8% and 77.6%.
In the same order, the values of `O=C(NCCCC1CCCCC1)c1ccc(CNC(=O)c2cnn(-c3ccccc3)c2C(F)(F)F)cc1` [SR-321] are 92%, 23.5%, 138%, 48.4% and 78%.
Turning to `O=C1c2ccc(Nc3ccc(F)cc3F)cc2CCc2ccc(OC[C@H](O)CO)cc21` [Skepinone-L], the viability at 10 µM in experiment [1] was 153%; in experiment [2] it was 56.2%; in experiment [3], 143%; in experiment [4] it was 72.8%; in experiment [5] it was 77.4%.
In the same order, the values of `CN1CCN(C(=O)C(C)(C)c2ccc(C(=O)Nc3cn4cc(-c5cc(C(C)(C)C)cc(C(C)(C)C)c5)ccc4n3)cc2)CC1` [T3-CLK-N] are 112%, 53.2%, 81.4%, 28.2% and 63.2%.
